Source: US10035790B2, “RORγ modulators” (BRISTOL-MYERS SQUIBB COMPANY, priority 2012, dated 2018)
Read-outs that look alike come from different tables or passages of the source.

Target: T1, ligand binding domain of human RORγ (A262-S507) (Homo sapiens, UniProt P51449)
T1 construct: made in house; host or cells: E. coli
T1 sequence (P51449 262-507): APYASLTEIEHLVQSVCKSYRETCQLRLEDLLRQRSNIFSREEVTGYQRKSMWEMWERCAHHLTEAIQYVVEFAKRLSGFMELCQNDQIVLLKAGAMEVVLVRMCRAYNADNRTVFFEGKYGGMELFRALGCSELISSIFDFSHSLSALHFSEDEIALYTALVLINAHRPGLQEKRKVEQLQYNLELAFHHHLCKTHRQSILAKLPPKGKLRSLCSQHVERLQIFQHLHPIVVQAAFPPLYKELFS
Test: General RORγ SPA binding assay (competition with [3H]25-hydroxycholesterol)
Settings: inhibition of [3H]25-hydroxycholesterol binding
In short: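 Step one: compound meets 50 nM nickel-purified, His-tagged protein from E. coli for 15 min at room temperature (PBS, 0.5% fatty acid free BSA). Step two: radioligand is added for another 15 min. Step three: SPA beads are added for 30 min before scintillation reading and IC50 fitting.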

[1] = RORγ SPA binding assay, read-out: IC50

Row | SMILES | IC50 [1] [µM] | IC50 (IC50, RORγ SPA binding assay) [µM]
1 | Cc1nc(C2CCN(C(=O)Cc3c(F)cccc3F)CC2)c(/C=N/Oc2cccc(C(F)(F)F)c2)c(=O)[nH]1 [Compound I6, (E)-4-(1-(2-(2,6-Difluorophenyl)acetyl)piperidin-4-yl)-2-methyl-6-oxo-1,6-dihydropyrimidine-5-carbaldehyde O-3-(trifluoromethyl)phenyl oxime] | 0.0609 | 
2 | Cc1nc(C2CCN(C(=O)Cc3c(F)cccc3F)CC2)c(C(=O)NCc2cccc(C(F)(F)F)n2)c(=O)n1C [Compound I7, 4-(1-(2-(2,6-Difluorophenyl)acetyl)piperidin-4-yl)-1,2-dimethyl-6-oxo-N-((6-(trifluoromethyl)pyridin-2-yl)methyl)-1,6-dihydropyrimidine-5-carboxamide] | 0.654 | 
3 | CCn1c(C)nc(C2CCN(C(=O)Cc3c(F)cccc3F)CC2)c(C(=O)NCc2cccc(C(F)(F)F)n2)c1=O [Compound I8, 4-(1-(2-(2,6-Difluorophenyl)acetyl)piperidin-4-yl)-1-ethyl-2-methyl-6-oxo-N-((6-(trifluoromethyl)pyridin-2-yl)methyl)-1,6-dihydropyrimidine-5-carboxamide] | 2.29 | 
4 | Cc1cc(C)cc(C/C=C\c2cnc(C)nc2C2CCN(C(=O)Cc3c(F)cccc3F)CC2)c1 [Compound J2, (Z)-2-(2,6-Difluorophenyl)-1-(4-(5-(3-(3,5-dimethylphenyl)prop-1-enyl)-2-methylpyrimidin-4-yl)piperidin-1-yl)ethanone] | 0.028 | 
5 | Cc1cc(C)cc(CCCc2cnc(C)nc2C2CCN(C(=O)Cc3c(F)cccc3F)CC2)c1 [Compound J3, 2-(2,6-Difluorophenyl)-1-(4-(5-(3-(3,5-dimethylphenyl)propyl)-2-methylpyrimidin-4-yl)piperidin-1-yl)ethanone] | 0.0077 | 
6 | Cc1cc(C)cc(C(=O)NCc2cnc(C)nc2C2CCN(C(=O)Cc3c(F)cccc3F)CC2)c1 [Compound K1, N-((4-(1-(2-(2,6-Difluorophenyl)acetyl)piperidin-4-yl)-2-methylpyrimidin-5-yl)methyl)-3,5-dimethylbenzamide] | 4.11 | 
7 | O=C(Cc1c(F)cccc1F)N1CCC(c2ncncc2C(=S)NCc2ccc(Cl)c(Cl)c2)CC1 [Compound L1, N-(3,4-Dichlorobenzyl)-4-(1-(2-(2,6-difluorophenyl)acetyl)piperidin-4-yl)pyrimidine-5-carbothioamide] | 0.081 | 
8 | Cc1ncc(C(=O)COc2cccc(Cl)c2)c(C2CCN(C(=O)Cc3c(F)cccc3F)CC2)n1 [Compound M1, 2-(3-Chlorophenoxy)-1-(4-(1-(2-(2,6-difluorophenyl)acetyl)piperidin-4-yl)-2-methylpyrimidin-5-yl)ethanone] | 0.026 | 
9 | CSc1ncc(C(=O)COc2ccnc(C(F)(F)F)n2)c(C2CCN(C(=O)Nc3c(F)cccc3F)CC2)n1 [Compound M2, N-(2,6-Difluorophenyl)-4-[2-(methylthio)-5-({[2-(trifluoromethyl)pyrimidin-4-yl]oxy}acetyl)pyrimidin-4-yl]piperidine-1-carboxamide] | 0.0186 | 
10 | Nc1ncc(C(=O)COc2ccnc(C(F)(F)F)n2)c(C2CCN(C(=O)Oc3c(F)cccc3F)CC2)n1 [Compound M3, 2,6-Difluorophenyl 4-[2-amino-5-({[2-(trifluoromethyl)pyrimidin-4-yl]oxy}acetyl)pyrimidin-4-yl]piperidine-1-carboxylate] |  | 0.0191
11 | Cc1ncc(C(=O)COc2cccc(C(F)(F)F)n2)c(C2CCN(C(=O)Nc3c(F)cccc3F)CC2)n1 [Compound M4, N-(2,6-Difluorophenyl)-4-[2-methyl-5-({[6-(trifluoromethyl)pyridin-2-yl]oxy}acetyl)pyrimidin-4-yl]piperidine-1-carboxamide] | 0.0065 | 
12 | Nc1ncc(C(=O)COc2ccnc(C(F)(F)F)n2)c(C2CCN(C(=O)Cc3c(F)cccc3F)CC2)n1 [Compound M5, 1-(2-Amino-4-{1-[(2,6-difluorophenyl)acetyl]piperidin-4-yl}pyrimidin-5-yl)-2-{[2-(trifluoromethyl)pyrimidin-4-yl]oxy}ethanone] | 0.0163 | 
13 | Nc1ncc(C(=O)COc2ccnc(C(F)(F)F)n2)c(C2CCN(C(=O)Nc3c(F)cccc3F)CC2)n1 [Compound M6, 4-[2-Amino-5-({[2-(trifluoromethyl)pyrimidin-4-yl]oxy}acetyl)pyrimidin-4-yl]-N-(2,6-difluorophenyl)piperidine-1-carboxamide] | 0.0122 | 
14 | O=C(COc1ccnc(C(F)(F)F)n1)c1cnc(NCCF)nc1C1CCN(C(=O)Nc2c(F)cccc2F)CC1 [Compound M7, N-(2,6-Difluorophenyl)-4-{2-[(2-fluoroethyl)amino]-5-({[2-(trifluoromethyl)pyrimidin-4-yl]oxy}acetyl)pyrimidin-4-yl}piperidine-1-carboxamide] | 0.159 | 
15 | Cc1nc(C)c(C(=O)COc2ccnc(C(F)(F)F)n2)c(C2CCN(C(=O)Nc3c(F)cccc3F)CC2)n1 [Compound M8, N-(2,6-Difluorophenyl)-4-[2,6-dimethyl-5-({[2-(trifluoromethyl)pyrimidin-4-yl]oxy}acetyl)pyrimidin-4-yl]piperidine-1-carboxamide] | 0.0017 | 
16 | Cc1nc(C)c(C(O)COc2ccnc(C(F)(F)F)n2)c(C2CCN(C(=O)Nc3c(F)cccc3F)CC2)n1 (stereo not shown) [Compound M9, N-(2,6-Difluorophenyl)-4-[5-(1-hydroxy-2-{[2-(trifluoromethyl)pyrimidin-4-yl]oxy}ethyl)-2,6-dimethylpyrimidin-4-yl]piperidine-1-carboxamide] | 0.002 | 
17 | Cc1nc(N)nc(C2CCN(C(=O)Nc3c(F)cccc3F)CC2)c1C(=O)COc1ccnc(C(F)(F)F)n1 [Compound M10, 4-[2-Amino-6-methyl-5-({[2-(trifluoromethyl)pyrimidin-4-yl]oxy}acetyl)pyrimidin-4-yl]-N-(2,6-difluorophenyl)piperidine-1-carboxamide] | 0.0053 | 
18 | Cc1nc(N)nc(C2CCN(C(=O)Nc3c(F)cccc3F)CC2)c1C(=O)COc1cccc(C(F)(F)F)n1 [Compound M11, 4-[2-Amino-6-methyl-5-({[6-(trifluoromethyl)pyridin-2-yl]oxy}acetyl)pyrimidin-4-yl]-N-(2,6-difluorophenyl)piperidine-1-carboxamide] | 0.0028 | 
19 | CC(=O)Nc1nc(C)c(C(=O)COc2cccc(C(F)(F)F)n2)c(C2CCN(C(=O)Nc3c(F)cccc3F)CC2)n1 [Compound M12, 4-[2-(Acetylamino)-6-methyl-5-({[6-(trifluoromethyl)pyridin-2-yl]oxy}acetyl)pyrimidin-4-yl]-N-(2,6-difluorophenyl)piperidine-1-carboxamide] | 0.0062 | 
20 | Nc1ncc(C(=O)COc2ccnc(C(F)(F)F)n2)c(C2CCN(C(=O)c3c(F)cccc3F)CC2)n1 [Compound M13, 1-(2-Amino-4-{1-[(2,6-difluorophenyl)carbonyl]piperidin-4-yl}pyrimidin-5-yl)-2-{[2-(trifluoromethyl)pyrimidin-4-yl]oxy}ethanone] | 0.344 | 
21 | Nc1ncc(C(=O)COc2cccc(C(F)(F)F)n2)c(C2CCN(C(=O)Oc3ccccc3F)CC2)n1 [Compound M14, 2-Fluorophenyl 4-[2-amino-5-({[6-(trifluoromethyl)pyridin-2-yl]oxy}acetyl)pyrimidin-4-yl]piperidine-1-carboxylate] |  | 0.485
22 | Cc1nc(C)c(C(O)COc2ccnc(C(F)(F)F)n2)c(C2CCN(C(=O)Nc3c(F)cccc3F)CC2)n1 (stereo not shown) [Compound N5, N-(2,6-Difluorophenyl)-4-[5-(1-hydroxy-2-{[2-(trifluoromethyl)pyrimidin-4-yl]oxy}ethyl)-2,6-dimethylpyrimidin-4-yl]piperidine-1-carboxamide] | 0.0084 | 

Further lines, with some results ahead:

Row | IC50 [1] [µM] | SMILES | IC50 (IC50, RORγ SPA binding assay) [µM]
23 | 0.0066 | Cc1ncc(C(O)COc2cccc(C(F)(F)F)n2)c(C2CCN(C(=O)Nc3c(F)cccc3F)CC2)n1 (stereo not shown) [Compound N1, N-(2,6-Difluorophenyl)-4-[5-(1-hydroxy-2-{[6-(trifluoromethyl)pyridin-2-yl]oxy}ethyl)-2-methylpyrimidin-4-yl]piperidine-1-carboxamide] | 
24 | 0.0195 | Nc1ncc(C(O)COc2ccnc(C(F)(F)F)n2)c(C2CCN(C(=O)Nc3c(F)cccc3F)CC2)n1 (stereo not shown) [Compound N2, 4-[2-Amino-5-(1-hydroxy-2-{[2-(trifluoromethyl)pyrimidin-4-yl]oxy}ethyl)pyrimidin-4-yl]-N-(2,6-difluorophenyl)piperidine-1-carboxamide] | 
25 | 0.0023 | Nc1ncc(C(O)COc2cccc(C(F)(F)F)n2)c(C2CCN(C(=O)Nc3c(F)cccc3F)CC2)n1 (stereo not shown) [Compound N3, 4-[2-Amino-5-(1-hydroxy-2-{[6-(trifluoromethyl)pyridin-2-yl]oxy}ethyl)pyrimidin-4-yl]-N-(2,6-difluorophenyl)piperidine-1-carboxamide] | 
26 | 0.0121 | COc1ncc(C(O)COc2cccc(C(F)(F)F)n2)c(C2CCN(C(=O)Nc3c(F)cccc3F)CC2)n1 (stereo not shown) [Compound N4, N-(2,6-Difluorophenyl)-4-[5-(1-hydroxy-2-{[6-(trifluoromethyl)pyridin-2-yl]oxy}ethyl)-2-(methyloxy)pyrimidin-4-yl]piperidine-1-carboxamide] | 
27 | 0.004 | Cc1nc(C)c(C(O)COc2cccc(C(F)(F)F)n2)c(C2CCN(C(=O)Nc3c(F)cccc3F)CC2)n1 (stereo not shown) [Compound N6, N-(2,6-Difluorophenyl)-4-[5-(1-hydroxy-2-{[6-(trifluoromethyl)pyridin-2-yl]oxy}ethyl)-2,6-dimethylpyrimidin-4-yl]piperidine-1-carboxamide] | 
28 | 0.0169 | Cc1nc(N)nc(C2CCN(C(=O)Nc3c(F)cccc3F)CC2)c1C(O)COc1ccnc(C(F)(F)F)n1 (stereo not shown) [Compound N7, 4-[2-amino-5-(1-hydroxy-2-{[2-(trifluoromethyl)pyrimidin-4-yl]oxy}ethyl)-6-methylpyrimidin-4-yl]-N-(2,6-difluorophenyl)piperidine-1-carboxamide] | 
